# According to patent US5302590A, “Compounds useful as dual antagonists of platelet activating factor and leukotriene D4” (Hoffmann-La Roche Inc., priority 1992, dated 1994):
# Like-named read-outs stand apart in the source and are kept apart here.
# Columns and labels:
# [1] = test system: platelet activating factor (PAF); experiment: PAF Induced Bronchoconstriction Assay; assay type: in vivo, guinea pig; details: for ED50: Cavia porcellus, Platelet, read-out: PAF-induced bronchoconstriction ID50; for antagonist activity against bronchoconstriction induced by PAF or LTD4: administered IV, statement covers both PAF and LTD4; for PAF-induced bronchoconstriction, percent inhibition: 10 mg/kg
# Procedure: (§1) The relative potency (ID50 values) of test compounds administered by the intravenous and oral route was determined by administering increasing doses of test compound. For determination of the time course of inhibition for various compounds, the time between administration of compound and challenge with LTD was varied. The time course of activity was calculated as the time when inhibition decreased to 40%.
# Male animals (Hartlet Strain, 400-500 g were anesthetized with urethane (2 g/kg, i.p.). Each animals' trachea was cannulated and the guinea pigs were respirated using a Harvard small animal rodent respirator (3.0 cc stroke volume, 40 breaths per min.). Tracheal pressure was recorded from a cannula inserted in the trachea and connected to a Statham pressure transducer.
# The jugular vein was cannulated for administering compounds. Spontaneous breathing was arrested with succinylcholine (1.2 mg/kg, i.v.) administered 2 minutes prior to intravenous injection of platelet activating factor PAF).
# For the intravenous testing, the guinea pig is given a 1-minute pretreatment with propranolol at a dose of 0.1 mg/kg intravenously. The test compound is administered with a 1 minute pretreatment prior to intravenous challenge with PAF. The animal is then challenged with a 1 μg/kg intravenous dose of PAF and the change in tracheal pressure is measured.
# For the oral testing, the procedure includes a 2-hour pretreatment period with the test compound administered through an oral gavage tube. Propranolol or succinylcholine and PAF are administered intravenously, and the change in tracheal pressure measured.
# The change in tracheal pressure is determined by subtracting the steady state baseline achieved after administration of succinylcholine from the peak bronchoconstriction seen after challenge with PAF. The mean is calculated for each test compound and compared to the mean of the control animals to give the percent inhibition of bronchoconstriction. The standard error is calculated as the standard error of the mean.
# (§2) The compounds listed below were evaluated for antagonist activity against bronchoconstriction induced by PAF or LTD4. Comparative data for a known LTD4 antagonist (Compound B) and a known PAF antagonist (Compound A) are also shown.
# (§3) Compounds C, D and E were administered orally at a dose of 10 mg/kg.
# [2] = test system: leukotriene D4 (LTD4); experiment: Leukotriene-induced bronchoconstriction in guinea pigs, in vivo leukotriene D4 (LTD) antagonist test; parameters: species or system guinea pig (Hartley strain); details: for ED50: Cavia porcellus, read-out: LTD4-induced bronchoconstriction ID50
# Procedure: Male guinea pigs (Hartley strain Charles River) weighing 300-500 g were anesthetized with urethane (~2 g/kg) intraperitoneally and a polyethylene cannula was inserted into the jugular vein for intravenous drug administration. Tracheal pressure (cm of H2 O) was recorded from a Statham pressure transducer (P 32 AA). Propranolol was administered 5 minutes prior to challenge with LTD. Two minutes later spontaneous breathing was arrested with succinylcholine chloride (1.2 mg/kg) administered intravenously, and the animals were ventilated with a Harvard (Model #680) small animal respirator set at 40 breaths/min and 4.0 cc stroke volume. Control vehicle or test drug was administered through the cannula into the jugular vein 1 minute before the animals were challenged intravenously with a maximum constrictory dose of LTD (25 μg/kg) given intravenously. The change in tracheal pressure was averaged for control and drug-treated animals and percent inhibition was calculated. For determination of oral activity, animals were dosed with test compound or vehicle two hours prior to challenge with LTD (25 μg/kg, i.v.).
# as §1, §2, §3
# [3] = 1 min, iv, 1 minute pretreatment, PAF 1 μg/kg i.v.
# [4] = 1 min, iv, 1 minute before LTD 25 μg/kg i.v.
# [5] = po, 10 mg/kg, two hours prior to LTD 25 μg/kg i.v.
SMILES,"ED50 [1, 3] [mg/kg]","ED50 ([1]; po, 2-hour pretreatment) [mg/kg]","LTD4-induced bronchoconstriction ID50 ([2]; iv, 1 minute before LTD 25 μg/kg i.v.)","LTD4-induced bronchoconstriction ID50 ([2]; po, two hours prior to LTD 25 μg/kg i.v.)","PAF-induced bronchoconstriction ID50 ([1]; iv, 1 minute pretreatment, PAF 1 μg/kg i.v.)","PAF-induced bronchoconstriction ID50 ([1]; po, 2-hour pretreatment)","ED50 [2, 4] [mg/kg]","ED50 ([2]; 2 h, po, two hours prior to LTD 25 μg/kg i.v.) [mg/kg]",antagonist activity against bronchoconstriction induced by PAF or LTD4 [1],"PAF-induced bronchoconstriction, percent inhibition ([1]; po, 2-hour pretreatment) [%]","LTD4-induced bronchoconstriction, percent inhibition [2, 5] [%]","LTD4-induced bronchoconstriction, percent inhibition ([2]; iv column, iv dose not given) [%]"
"Cc1nnc2n1-c1sc(C#CCn3c(=O)c4ccccc4c4ccccc43)cc1C(c1ccccc1Cl)=NC2 [Compound A, 5-{3-[4-(2-Chlorophenyl)-9-methyl-6H-thieno[3,2f][1,2,4]triazolo[4,3-a][1,4]diazepin-2-yl]-2-propynyl}phenanthridin-6(5H)-one, reference compound]",0.02,0.12,Not Active,Not Active,–,–,–,–,–,–,–,–
"CCC(CC)(CC(=O)Nc1cccc(/C=C/c2nc(C3CCC3)cs2)c1)C(=O)O [Compound B, (E)-4-[3-[2-(4-Cyclobutyl-2-thiazolyl)ethenyl]phenylamino]2,2-diethyl-4-oxobutanoic acid, reference compound]",–,–,–,–,Not Active,Not Active,0.13,0.12,–,–,–,–
"Cc1nnc2n1-c1sc(CCc3ccc(CC(=O)Nc4cccc(/C=C/c5nc(C6CCC6)cs5)c4)c(C(=O)O)c3)cc1C(c1ccccc1Cl)=NC2.O [Compound C, (E)-5-[2-[4-(2-chlorophenyl)-9-methyl-6H-thieno-[3,2-f][1,2,4]triazolo[4,3-a][1,4]diazepin-2-yl]ethyl]-2-[2-[3-[2-(4-cyclobutyl-2-thiazolyl)ethenyl]phenylamino]-2-oxoethyl]-benzoic acid monohydrate]",0.02,–,–,–,–,–,0.01,–,very potent dual acting antagonists,37 ± 1,48 ± 8,–
"C=CCNC(=O)c1cc(CCc2cc3c(s2)-n2c(C)nnc2CN=C3c2ccccc2Cl)ccc1CC(=O)Nc1cccc(/C=C/c2nc(C3CCC3)cs2)c1 [Compound D, (E)-4-[2-[4-(2-Chlorophenyl)-9-methyl-6H-thieno-[3,2-f][1,2,4]triazolo[4,3-a][1,4]diazepin-2-yl]ethyl]-N-[3-[2-(4-cyclobutyl-2-thiazolyl)ethenyl]phenyl]-2-[(2-propenylamino)-carbonyl]benzeneacetamide]",0.02,–,–,–,–,–,0.08,–,very potent dual acting antagonists,65 ± 1,44 ± 15,–
"CCOC(=O)c1cc(CCc2cc3c(s2)-n2c(C)nnc2CN=C3c2ccccc2Cl)ccc1CC(=O)Nc1cccc(/C=C/c2nc(C3CCC3)cs2)c1 [Compound E, (E)-5-[2-[4-(2-Chlorophenyl)-9-methyl-6H-thieno-[3,2-f][1,2,4]triazolo[4,3-a][1,4]diazepin-2-yl]ethyl]-2-[2-[3-[2-(4-cyclobutyl-2-thiazolyl)ethenyl]phenylamino]-2-oxoethyl]-benzoic acid ethyl ester]",0.02,–,–,–,–,–,–,–,–,14 ± 9,–,46 ± 7
